Data: publication PMC4834639, “Steroid binding to Autotaxin links bile salts and lysophosphatidic acid signalling” (Nature Communications, 2016)
“Also recorded” adds a separate entry of the source. Read-outs that look alike come from different tables or passages of the source.

Columns and labels:
[1] = target: T1, hATX (Homo sapiens, UniProt Q13822)
Procedure: (§1) All biochemical studies were performed with hATX. ATX lysoPLD activity was measured by choline release from LPC[47]. […] The relative amount of released choline was measured by HVA fluorescence in a 96-well plate (Corning). Fluorescent intensity was determined at λex/λem=320/450 nm every 30 s for 90 min with a Fluorostar plate reader (BMG Labtech). Data analysis was performed using GraphPad Prism.
(§2) The experiments for determining IC50 for different bile salt inhibitors were performed by adding the named bile salt and performing serial threefold dilutions; for each bile salt concentration, the velocity of the reaction was monitored as a function of time in the lysoPLD assay as described above.
(§3) For initial comparison between competitive, uncompetitive and non-competitive inhibition by TUDCA, using the LPC and the FS3 assays, we measured the relative velocity for increasing LPC or FS3 substrate concentrations, for no-inhibitor and for three different inhibitor concentrations. The relative velocity for each data point was measured by linear regression as described above, and a Michaelis–Menten curve was created for each inhibitor concentration. We then used the following equations to describe each mode of inhibition:
(§4) where in addition to previous definitions that can be derived from equations (4–6), we define Part as the partiality of the inhibition and α as an estimated constant that determines mechanism: if α=1, the formula becomes identical to equation (4) and the inhibition mode is noncompetitive; if a is very large, then the model approaches a competitive model equation (3); if a is very small but greater than zero, the model approaches an uncompetitive model.
(§5) This procedure allowed a more robust fit to determine all parameters from all available experiments.
(§6) All modelling was performed using the regression analysis tools within the Graphpad/Prism software. The values of all derived parameters indicate mean values as obtained by nonlinear regression analysis using the formulas listed above; triplicate data were used as separate observations during the fit; ±values indicate the standard error of the mean.

[2] = target: T1, hATX; test: biochemical
Procedure: as §1, §2, §3, §4, §5, §6

[3] = tested on: ATX-mediated LPAR1 endocytosis in HeLa cells; test: LPA1 receptor internalization assay in GFP-LPA1-transfected HeLa cells; settings: 0.1 μM LPC, 5 nM ATX, 500 μM TUDCA, 15 min, P<0.001
Procedure: HeLa cells (obtained from American Type Culture Collection) were grown in DMEM supplemented with 10% fetal bovine serum at 37 °C under 5% CO2. For LPA1 internalization studies, HeLa cells were transient transfected with GFP-LPA1 plasmid using X-tremeGene 9 (Roche) reagent according to the manufacturer's instructions. At 10 h after transfection, the cells were rinsed with SF-DMEM and incubated in the same medium for 16–24 h before further treatments. […] Slides were examined on a Leica TCS-SP5 confocal microscope (× 62 objective) and analysed using ImageJ software.

[4] = target: T1, hATX; test: Mass spectrometry analysis of sterols associated with recombinant ATX preparation; set-up: made in house; host or cells: HEK 293 Flp-In cells; settings: for amount found in ATX preparation: representative ATX preparation containing 2.4 pmol ATX; for Ratio to ATX: representative ATX preparation, ATX = 1.0
Procedure: Recombinant hATX preparations or buffer controls were extracted using acidified organic solvents as reported previously for lipid extractions from cells and tissues[45] with inclusion of deuterium-labelled cholesterol of oxysterol internal standards as detailed below. Samples were evaporated to dryness and reconstituted in methanol for mass spectrometry analysis.
Cholesterol and hydroxysterols were analysed using an AB Sciex 4000-Qtrap hybrid linear ion trap triple quadrupole mass spectrometer in multiple reaction monitoring mode connected to a Shimadzu HPLC. Cholesterol was analysed in positive multiple reaction monitoring mode using a Machery Nagel Nucleodur C8 gravity column, 5 μm, 125 × 2 mm^2 with a flow rate of 0.5 ml min^−1. Solvent A consists of 75/25 of methanol/water with 0.5% formic acid and 0.1% 5 mM ammonium formate and solvent B consists of 99/1 of methanol/water with 0.5% formic acid and 0.1% 5 mM ammonium formate. The cholesterol measurements were conducted exactly as reported previously with quantification accomplished by reference to a deuterated internal standard. Oxysterols were measured after dimethylglycine (DMG) derivatization using an Agilent Zorbax Eclipse XDB-C18 column, 5 μm, 4.6 × 150 mm^2 with a flow rate of 0.5 ml min^−1. Solvent A was 85% methanol with 5 mM ammonium acetate and solvent B consisted of 80:20:2 of chloroform/water/50 mM ammonium acetate. In brief, we obtained authentic standards for 25-, 24-, 27, 7-α and 4-β OH cholesterol and deuterated 25-OH cholesterol and prepared DMG derivatives exactly as previously described. We obtained product ion spectra from the doubly and singly charged DMG derivatives of these compounds that were essentially identical to those reported previously with some differences in product ion abundances that are likely attributable to differences between our mass spectrometer system and that used by Jiang et al.[46]. […] Quantification of oxysterols was accomplished by reference to the deuterated 25-OH cholesterol internal standard as explained below.
Cholesterol was detected in all ATX preparations analysed.
As reported by Jiang et al.[46], bis-DMG derivatives of hydroxylated cholesterol generate doubly charged molecular ions (m/z=287.3), which fragment to produce protonated DMG (m/z=104.1) and production of singly charged mono-DMG derivative ions (m/z=367.2). […] Accordingly, we established a selected ion-monitoring mode HPLC LC MS/MS assay that monitored these ion pairs. […] Quantification was accomplished by comparing the integrated peak area for the […]/104.1 ion pair to that of the corresponding ion pair from the deuterated 25-OH cholesterol internal standard. That ATX preparation analysed contained 1.48 pmol of 7-OH cholesterol.

[5] = LPC(18:1) substrate, result in words

| SMILES | effect on ATX-mediated LPC hydrolysis [1, 5] | IC50 [2] | also measured |
| --- | --- | --- | --- |
| C[C@H](CCC(=O)NCC(=O)O)[C@H]1CC[C@H]2[C@@H]3[C@H](O)C[C@@H]4C[C@H](O)CC[C@]4(C)[C@H]3CC[C@]12C [GCDCA, Glycochenodeoxycholic acid] | did not significantly change potency | 8.1 ± 0.7 µM | – |
| C[C@H](CCC(=O)NCCS(=O)(=O)O)[C@H]1CC[C@H]2[C@@H]3[C@@H](O)C[C@@H]4C[C@H](O)CC[C@]4(C)[C@H]3CC[C@]12C [TUDCA, Tauroursodeoxycholic acid] | – | – | ATX-mediated LPAR1 endocytosis (number of GFP-LPA1 endosomes) [3]: reduces ATX-mediated LPAR1 endocytosis; also recorded: reduces the number of endosomes |
| CC(C)CCC[C@@H](C)[C@H]1CC[C@H]2[C@@H]3[C@H](O)C=C4C[C@@H](O)CC[C@]4(C)[C@H]3CC[C@]12C [7HCS, 7α-hydroxycholesterol] | no effect | – | amount found in ATX preparation [4]: 1.48 pmol; Ratio to ATX [4]: 0.62 |
| C[C@H](CCC(=O)NCCS(=O)(=O)O)[C@H]1CC[C@H]2[C@@H]3[C@H](O)C[C@@H]4C[C@H](O)CC[C@]4(C)[C@H]3C[C@H](O)[C@]12C [TCA, Taurocholic acid] | – | > 1000 µM | effect on ATX-mediated LPC hydrolysis [1]: abrogate the inhibitory activity |
| C[C@]12CC[C@H]3[C@@H](CCC4=CC(=O)CC[C@@]43C)[C@@H]1CC[C@@H]2O [testosterone] | no effect | – | – |
| C[C@H](CCCC(C)(C)O)[C@H]1CC[C@H]2[C@@H]3[C@H](O)C=C4C[C@@H](O)CC[C@]4(C)[C@H]3CC[C@]12C [DHCS, 7α,25-Dihydroxycholesterol] | no effect | > 1000 µM | – |
| C[C@@H]1C[C@H]2[C@@H]3CCC4=CC(=O)C=C[C@]4(C)[C@@]3(F)[C@@H](O)C[C@]2(C)[C@@]1(O)C(=O)CO [dexamethasone] | no effect | – | – |
| C[C@H](CCC(=O)O)[C@H]1CC[C@H]2[C@@H]3[C@@H](O)C[C@@H]4C[C@H](O)CC[C@]4(C)[C@H]3CC[C@]12C [UDCA, Ursodeoxycholic acid] | – | 8.8 ± 0.5 µM | – |
| C[C@H](CCC(=O)NCCS(=O)(=O)O)[C@H]1CC[C@H]2[C@@H]3CC[C@@H]4C[C@H](O)CC[C@]4(C)[C@H]3C[C@H](O)[C@]12C [TDCA, Taurodeoxycholic acid] | abrogate the inhibitory activity | > 1000 µM | – |
| C[C@]12C=CC(=O)C=C1CC[C@@H]1[C@@H]2[C@@H](O)C[C@@]2(C)[C@H]1CC[C@]2(O)C(=O)CO [prednisolone] | no effect | – | – |
| CC(C)CCC[C@@H](C)[C@H]1CC[C@H]2[C@@H]3CC=C4C[C@@H](O)CC[C@]4(C)[C@H]3CC[C@]12C [Cholesterol] | – | – | amount found in ATX preparation [4]: 0.35 pmol; Ratio to ATX [4]: 0.15 |
